# US10179355B2, “Bioremediation enhancing agents and methods of use” (JRW BIOREMEDIATION, LLC, priority 2007, dated 2019)
# “And” between values parts separate entries of the source, which are not always exact repeats. Equal values may be shown once.
# Experiments:
# Assay type in all cases: cell-based, Dehalococcoides and Dehalobacter spp.
# [1] = system: dechlorinating bacteria known to convert PCE to ethene; test: Set F: Additional Novel Bioremediation Amendments, PCE dechlorination microcosms; conditions: 44 days, nominally 1,000 mg/L
# Method: (§1) The following components were used in the system for bioremediating contaminated ground water microcosms in Examples 2-8: • 160 milliliter (ml) stoppered serum bottles • 100 ml of anaerobic culture medium, groundwater containing an excess of bioavailable phosphorus and nitrogen at 0.5 mM Phosphate and 1 mM ammonium degassed with a nitrogen sparge • Nominally 1 gram of limestone • 19.54 micromoles (pmoles) Perchloroethene (PCE) • An excess of various electron donors were utilized • 3 ml of inoculum containing dechlorinating bacteria known to convert PCE to ethene.
# Set F included microcosms that contained Sodium Gluconate and Sodium Erythorbate. They started at concentrations that were nominally 1,000 mg/L as compared with the sodium lactate control at 7 mM (784 mg/L).
# The objective of this set was to characterize the ability of these two novel bioremediation electron donors to completely dechlorinate PCE and characterize the electron donor utilization efficiency as compared with sodium lactate.
# [2] = system: dechlorinating bacteria known to convert PCE to ethene; test: Set E: Relative Efficiency of Novel Bioremediation Amendments (electron donors), PCE dechlorination microcosms
# Text: (§2) Sets B, C, D, E, and G further contain figures and tables showing results of the characterization of the Efficiency and the Relative Efficiency of electron donor usage. Efficiency may be defined as the percent of electron donor utilized for dechlorination, and may be calculated by dividing the pmoles of Chloride ion generated by the pmoles of electron donor consumed as measured by either Volatile Fatty Acid (VFA) analysis (Sets B, C, and G) or Chemical Oxygen Demand (COD) analysis (Set D and E). The Relative Efficiency of the electron donor utilization may be defined as the Efficiency of the Electron Donor divided by the Efficiency of the Lactate Control.
# as §1
# The fifth set tested a variety of different electron donors comparing Crude Glycerin, Sodium Citrate, Ethanol and Whey all charged at nominally 1,000 mg/L to lactate at 7 mM (784 mg/L).
# The objective of the study was to test bioremediation amendments for efficacy as electron donors as well as to characterize their Efficiency for dechlorination as compared to the Lactate Control.
# [3] = system: dechlorinating bacteria known to convert PCE to ethene; test: Set G: Additional Yeast Metabolites and Polysaccharides as Nutrients, PCE dechlorination microcosms (kinetics, Relative Rate, paired t-test); conditions: bottles 1-3
# Text: Certain contaminated materials (or sites) may contain indigenous microbial communities that are sufficient for complete bioremediation of contaminants. For such sites, there is no need to add microbes unless the indigenous microbes are genetically deficient in achieving the desired clean-up goals. For those sites that are microbiologically limited, microorganisms may be added to the contaminated materials (or sites). In one embodiment, the inoculum may be a mixed culture of halo-respiring bacteria that have been enriched to reach an optimal cell density. These mixed cultures of halo-respiring bacteria may be typically obtained from sediment samples from rivers, streams or any waterways. More specifically, the inoculum used in the Examples was originated from a Sangamon River sediment sample (Lodge Park, Piatt County, Ill.) See, e.g., Brennan, R. A., Sanford, R. A. and Werth, C. J. (2006). “Biodegradation of Tetrachloroethene by Chitin Fermentation Products in a Continuous Flow Column System.” Journal of Environ. Engr., June 665-673. This culture had grown for several years on PCE, anaerobic basal salts medium, Wolfe's vitamin solution and various electron donors including lactate (1-2 millimolar (mM)), formate (4 mM) and chitin using the Volatile Interface Transfer Apparatus (VITA) reactor system at the University of Illinois. Brennan, R. A., and Sanford, R. A. (2002). “Continuous steady-state method using Tenax for delivering tetrachloroethene to chlororespiring bacteria.” Appl. Environ. Microbiol., 68(3), 1464-1467. […] Using 16S rRNA gene-specific primers, both Dehalococcoides and Dehalobacter spp. were detected. Quantitative real-time PCR has been used to determine that approximately 1.65×10^7 Dehalococcoides gene copies were present per ml of culture.
# For purpose of this disclosure, each bottle may be started with a certain amount of PCE. At subsequent times each bottle may be sampled for the degradation daughter products of PCE, namely trichloroethene (TCE), cis-dichloroethene (DCE), vinyl chloride (VC) and ethene, etc. Trans-DCE and 1,1-DCE are also daughter products of PCE, but they may not be detectable under the conditions disclosed here.
# The rate of degradation may be determined by calculating the number of pmoles of chloride ions removed from PCE and subsequently from the amounts of the daughter products generated. The calculation may be performed as follows: Chloride (μmoles)=[…]−4×PCE (μmoles)−3×TCE (pmoles)−2×DCE (μmoles)−VC (μmoles)
# The alternative chloride calculation is: Chloride (μmoles)=TCE (μmoles)+2×DCE (μmoles)+3×VC (μmoles)+4×Ethene (μmoles)
# Next, the dechlorination rate may be determined for each bottle at each time by dividing the Chloride generated by the time (days). The data may be then normalized to the lactate control by taking the ratio of Chloride Rate (pmoles/day) and the Lactate Control Chloride Rate (pmoles/day). This ratio is called Relative Rate and is dimensionless.
# As shown in the Examples, a paired t-test has been conducted to calculate the probability that the Relative Rate of one group (i.e. with Nutrient) is greater than the other group (i.e. without Nutrient). The null hypothesis is that the underlying means of the two paired groups are equal. The Probability that one group has higher Relative Rates than the other group is shown in various tables in the Examples.
# as §1, with “ethene. […]” for “ethene.”
# [4] = system: dechlorinating bacteria known to convert PCE to ethene; test: Set G: Efficiency by VFA Analysis
# Text: as §2
# The method used to calculate the consumption of the electron donor measured the propionate, acetate and formate levels to calculate the consumption of electron donor over time. The lactate and propionate fermented very rapidly resulting in acetate and formate as the only measurable VFAs.
# Set G contained microcosms that tested two different Yeast Metabolites (YM3 and YM4) and a Polysaccharide (PS1) for kinetics and efficiency of electron donor utilization using lactate and molasses as the electron donors. PS1 was also tested as an electron donor by itself.
# Lactate at 11.2 mM (1,000 mg/L) and nutrient amendment at 1% of the electron donor levels (˜10 mg/L). Triplicate bottles received 2 micro liters of PCE and 2 ml of inoculum. The bottles were sampled 5 times over a 138 day period.
compound,measurement,setting,value
"O=C1O[C@H]([C@H](O)CO)C([O-])=C1O.[Na+] [Na-Erythorbate, Sodium Erythorbate]",Ethene generation (in words),[1],starting to generate Ethene
"O=C([O-])[C@H](O)[C@@H](O)[C@H](O)[C@H](O)CO.[Na+] [Na-Gluconate, Sodium Gluconate]",Ethene generation (in words),[1],starting to generate Ethene
O=C([O-])CC(O)(CC(=O)[O-])C(=O)[O-].[Na+].[Na+].[Na+] [Sodium Citrate],ability to dechlorinate PCE (in words),[2],ability to completely dechlorinate PCE
same,dechlorination speed compared to Lactate Control / other amendments (in words),[2],almost as fast
same,efficient as the Lactate Control (Relative Efficiency),"[2]; electron donor nominally 1,000 mg/L vs lactate 7 mM",84%
inulin [PS1],Relative Rate,[3]; time 35 days,0.03 and 0.04 and 0.05
same,Relative Rate,[3]; time 50 days,0.02 and 0.01 (2×)
same,Relative Rate,[3]; time 79 days,0.03 and 0.04 and 0.02
same,Relative Rate,[3]; time 138 days,0.00
same,Estimated % Efficiency,[4]; e^- used dechlorination / e^- used donor,0.283%
same,Relative Efficiency,[4]; relative to Lactate Control = 100%,5%
